Laboratory results reported in ChEMBL document CHEMBL1201861, “Genomics of Drug Sensitity in Cancer screening data, Wellcome Trust Sanger Institute”.
Where a name gives a salt, the structure may show the parent alone.

What was measured:
Assay in all cases: cells
Format in all cases: functional, cell-based, Homo sapiens
TYK-nu = conditions: Homo sapiens, TYK-nu;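 note: growth inhibition of human TYK-nu cells, read out by a cell viability assay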
Description: SANGER: Inhibition of human TYK-nu cell growth in a cell viability assay.

A549 = conditions: Homo sapiens, A549;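 note: growth inhibition of A549 cells, read out with a cell viability assay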
Description: SANGER: Inhibition of human A549 cell growth in a cell viability assay.

FaDu = conditions: Homo sapiens, FaDu;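 note: cell viability readout of growth inhibition in FaDu cells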
Description: SANGER: Inhibition of human FADU cell growth in a cell viability assay.

BEN = conditions: Homo sapiens, BEN;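 note: growth inhibition of the BEN cell line, read out with a cell viability assay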
Description: SANGER: Inhibition of human BEN cell growth in a cell viability assay.

639-V = conditions: Homo sapiens, 639-V;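 note: growth inhibition of 639-V cells, read out with a cell viability assay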
Description: SANGER: Inhibition of human 639-V cell growth in a cell viability assay.

PA-1 = conditions: Homo sapiens, PA-1;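 note: IC50 for suppression of PA-1 cell proliferation, determined with a cell viability read-out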
Description: SANGER: Inhibition of human PA-1 cell growth in a cell viability assay.

NCI-H2228 = conditions: Homo sapiens, NCI-H2228;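 note: growth inhibition of human NCI-H2228 cells, read out by a cell viability assay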
Description: SANGER: Inhibition of human NCI-H2228 cell growth in a cell viability assay.

MC-IXC = conditions: Homo sapiens, MC-IXC;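 note: growth inhibition of MC-IXC cells, read out with a cell viability assay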
Description: SANGER: Inhibition of human MC-IXC cell growth in a cell viability assay.

OC-314 = conditions: Homo sapiens, OC-314
Description: SANGER: Inhibition of human OC-314 cell growth in a cell viability assay.

MG-63 = conditions: Homo sapiens, MG-63;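 note: growth inhibition of human MG-63 cells, read out with a cell viability assay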
Description: SANGER: Inhibition of human MG-63 cell growth in a cell viability assay.

UO-31 = conditions: Homo sapiens, UO-31;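 note: cell viability assay measuring inhibition of cell growth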
Description: SANGER: Inhibition of human U031 cell growth in a cell viability assay.

A-431 = conditions: Homo sapiens, A-431;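 note: growth inhibition of A-431 cells, determined with a cell viability read-out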
Description: SANGER: Inhibition of human A431 cell growth in a cell viability assay.

MDA-MB-453 = conditions: Homo sapiens, MDA-MB-453
Description: SANGER: Inhibition of human MDA-MB-453 cell growth in a cell viability assay.

NCI-H460 = conditions: Homo sapiens, NCI-H460;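 note: cell viability assay scoring growth inhibition of human NCI-H460 cells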
Description: SANGER: Inhibition of human NCI-H460 cell growth in a cell viability assay.

NCI-H1792 = conditions: Homo sapiens, NCI-H1792;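 note: growth inhibition of human NCI-H1792 cells, read out as cell viability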
Description: SANGER: Inhibition of human NCI-H1792 cell growth in a cell viability assay.

A2058 = conditions: Homo sapiens, A2058;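 note: reduction of A2058 cell growth, read out with a viability assay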
Description: SANGER: Inhibition of human A2058 cell growth in a cell viability assay.

HCC1419 = conditions: Homo sapiens, HCC1419;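 note: growth inhibition of human HCC1419 cells, read out as cell viability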
Description: SANGER: Inhibition of human HCC1419 cell growth in a cell viability assay.

SW1573 = conditions: Homo sapiens, SW1573;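 note: growth inhibition of SW1573 cells, read out with a cell viability assay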
Description: SANGER: Inhibition of human SW1573 cell growth in a cell viability assay.

DU-145 = conditions: Homo sapiens, DU-145
Description: SANGER: Inhibition of human DU-145 cell growth in a cell viability assay.

KYSE-140 = conditions: Homo sapiens, KYSE-140;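 note: cell viability assay measuring growth inhibition in human KYSE-140 cells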
Description: SANGER: Inhibition of human KYSE-140 cell growth in a cell viability assay.

CAL-39 = conditions: Homo sapiens, CAL-39;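 note: cell viability assay measuring growth inhibition of CAL-39 cells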
Description: SANGER: Inhibition of human CAL-39 cell growth in a cell viability assay.

769-P = conditions: Homo sapiens, 769-P
Description: SANGER: Inhibition of human 769-P cell growth in a cell viability assay.

HCC1937 = conditions: Homo sapiens, HCC1937;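 note: growth inhibition measured with a cell viability read-out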
Description: SANGER: Inhibition of human HCC1937 cell growth in a cell viability assay.

BFTC-905 = conditions: Homo sapiens, BFTC-905
Description: SANGER: Inhibition of human BFTC-905 cell growth in a cell viability assay.

CAL-120 = conditions: Homo sapiens, CAL-120;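 note: cell growth inhibition, read out as cell viability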
Description: SANGER: Inhibition of human CAL-120 cell growth in a cell viability assay.

HuO9 = conditions: Homo sapiens, HuO9;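 note: growth inhibition of HuO9 cells, read out with a cell viability assay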
Description: SANGER: Inhibition of human HuO9 cell growth in a cell viability assay.

PANC-03-27 = conditions: Homo sapiens, PANC-03-27
Description: SANGER: Inhibition of human PANC-03-27 cell growth in a cell viability assay.

HMV-2 cell line = conditions: Homo sapiens, HMV-2;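 note: growth inhibition of HMV-II cells, read out with a cell viability assay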
Description: SANGER: Inhibition of human HMV-II cell growth in a cell viability assay.

MCF7 = conditions: Homo sapiens, MCF7;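 note: growth inhibition of human MCF7 cells, read out with a cell viability assay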
Description: SANGER: Inhibition of human MCF7 cell growth in a cell viability assay.

IGR-1 = conditions: Homo sapiens, IGR-1;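 note: growth inhibition of human IGR-1 cells, read out with a cell viability assay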
Description: SANGER: Inhibition of human IGR-1 cell growth in a cell viability assay.

NUGC-3 = conditions: Homo sapiens, NUGC-3;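 note: growth inhibition of human NUGC-3 cells, read out with a cell viability assay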
Description: SANGER: Inhibition of human NUGC-3 cell growth in a cell viability assay.

HOP-92 = conditions: Homo sapiens, HOP-92;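 note: cell viability readout, with IC50 reflecting inhibition of HOP-92 cell growth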
Description: SANGER: Inhibition of human HOP-92 cell growth in a cell viability assay.

SW1990 = conditions: Homo sapiens, SW1990;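 note: cell growth inhibition determined with a viability assay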
Description: SANGER: Inhibition of human SW1990 cell growth in a cell viability assay.

EGI-1 = conditions: Homo sapiens, EGI-1;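 note: cell viability readout used to gauge growth inhibition of EGI-1 cells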
Description: SANGER: Inhibition of human EGI-1 cell growth in a cell viability assay.

JEG-3 = conditions: Homo sapiens, JEG-3;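 note: growth inhibition of human JEG-3 cells, read out with a cell viability assay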
Description: SANGER: Inhibition of human JEG-3 cell growth in a cell viability assay.

COLO-741 = conditions: Homo sapiens, COLO-741
Description: SANGER: Inhibition of human COLO-741 cell growth in a cell viability assay.

SK-OV-3 = conditions: Homo sapiens, SK-OV-3;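 note: growth inhibition of SK-OV-3 human cells, read out with a cell viability assay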
Description: SANGER: Inhibition of human SK-OV-3 cell growth in a cell viability assay.

T-24 = conditions: Homo sapiens, T-24;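 note: growth inhibition of T-24 cells, read out with a cell viability assay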
Description: SANGER: Inhibition of human T-24 cell growth in a cell viability assay.

RVH-421 = conditions: Homo sapiens, RVH-421
Description: SANGER: Inhibition of human RVH-421 cell growth in a cell viability assay.

NCI-H1417 = conditions: Homo sapiens, NCI-H1417;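 note: human NCI-H1417 cells, growth inhibition determined with a cell viability readout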
Description: SANGER: Inhibition of human NCI-H1417 cell growth in a cell viability assay.

NCI-H2009 = conditions: Homo sapiens, NCI-H2009;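 note: cell viability assay measuring inhibition of NCI-H2009 cell growth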
Description: SANGER: Inhibition of human NCI-H2009 cell growth in a cell viability assay.

MHH-CALL-2 = conditions: Homo sapiens, MHH-CALL-2;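 note: growth inhibition of the cell line, read out in a cell viability assay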
Description: SANGER: Inhibition of human MHH-CALL-2 cell growth in a cell viability assay.

CHP-126 = conditions: Homo sapiens, CHP-126
Description: SANGER: Inhibition of human CHP-126 cell growth in a cell viability assay.

IST-SL2 = conditions: Homo sapiens, IST-SL2;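 note: growth inhibition of human IST-SL2 cells, read out by a cell viability assay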
Description: SANGER: Inhibition of human IST-SL2 cell growth in a cell viability assay.

KARPAS-422 = conditions: Homo sapiens, KARPAS-422
Description: SANGER: Inhibition of human KARPAS-422 cell growth in a cell viability assay.

GDM-1 = conditions: Homo sapiens, GDM-1;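 note: cell viability readout used to measure growth inhibition of human GDM-1 cells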
Description: SANGER: Inhibition of human GDM-1 cell growth in a cell viability assay.

NCI-H2227 = conditions: Homo sapiens, NCI-H2227;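 note: growth inhibition of the human cell line, read out with a cell viability assay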
Description: SANGER: Inhibition of human NCI-H2227 cell growth in a cell viability assay.

LB647-SCLC = conditions: Homo sapiens, LB647-SCLC;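 note: cell growth inhibition, read out by a viability assay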
Description: SANGER: Inhibition of human LB647-SCLC cell growth in a cell viability assay.

Measured: IC50

CN(C)C(=N)NC(=N)N [METFORMIN]
> 20000 µM: 639-V | NCI-H2228 | OC-314 | UO-31 | A-431 | NCI-H460 | NCI-H1792 | A2058 | HCC1419 | SW1573 | KYSE-140 | CAL-39 | HCC1937
11700 µM: BFTC-905
11200 µM: FaDu
7890 µM: MC-IXC
4540 µM: A549
12900 µM: MDA-MB-453
14200 µM: PA-1
16500 µM: TYK-nu
15400 µM: BEN
14000 µM: MG-63
838 µM: DU-145
6920 µM: 769-P

CCN(CC)CCCCNc1ncc2cc(-c3cc(OC)cc(OC)c3)c(NC(=O)NC(C)(C)C)nc2n1 [PD-173074]
1.58 µM: DU-145
not listed: NCI-H1417 | NCI-H2009 | MHH-CALL-2 | CHP-126 | IST-SL2 | KARPAS-422 | GDM-1 | NCI-H2227 | LB647-SCLC
> 2 µM: all other assays above

Cn1cnc2c(F)c(Nc3ccc(Br)cc3Cl)c(C(=O)NOCCO)cc21 [SELUMETINIB]
1.83 µM: EGI-1
1.2 µM: NUGC-3
3.74 µM: 769-P
2.8 µM: NCI-H460
0.332 µM: CAL-39
0.214 µM: A549
0.279 µM: RVH-421
0.531 µM: COLO-741
2.42 µM: BFTC-905
not listed: UO-31 | A2058 | HMV-2 cell line | NCI-H1417 | NCI-H2009 | MHH-CALL-2 | CHP-126 | IST-SL2 | KARPAS-422 | GDM-1 | NCI-H2227 | LB647-SCLC
> 4 µM: all other assays above

N#Cc1c(O)c2c(-c3ccc(-c4ccccc4O)cc3)csc2[nH]c1=O
0.622 µM: LB647-SCLC
0.269 µM: CHP-126
0.439 µM: NCI-H1417
0.0292 µM: A-431
0.344 µM: KARPAS-422
0.0255 µM: GDM-1
not listed: A549 | OC-314
> 1.02 µM: all other assays above

COC1=CC(c2cc3ccccc3[nH]2)=N/C1=C\c1[nH]c(C)cc1C [OBATOCLAX MESYLATE]
0.0524 µM: HMV-2 cell line
0.265 µM: NCI-H1417
0.0791 µM: BFTC-905
0.229 µM: CAL-39
0.893 µM: NCI-H2228
0.239 µM: SW1990
0.814 µM: UO-31
> 16 µM: NCI-H2227
0.0877 µM: PA-1
0.088 µM: A-431
0.0305 µM: NUGC-3
0.101 µM: NCI-H460
1.5 µM: JEG-3
0.685 µM: GDM-1
0.156 µM: 639-V
0.316 µM: COLO-741
0.467 µM: DU-145
0.426 µM: FaDu
0.368 µM: HOP-92
0.107 µM: A2058
9.94 µM: T-24
0.0947 µM: IST-SL2
1.07 µM: BEN
2.02 µM: SW1573
0.524 µM: SK-OV-3
0.464 µM: HCC1937
0.609 µM: MHH-CALL-2
0.166 µM: KARPAS-422
15.7 µM: LB647-SCLC
1.57 µM: CHP-126
0.296 µM: CAL-120
0.0167 µM: RVH-421
0.0967 µM: PANC-03-27
1.58 µM: EGI-1
1.83 µM: HCC1419
0.179 µM: TYK-nu
0.345 µM: MC-IXC
2.23 µM: MDA-MB-453
< 0.0625 µM: MCF7 | IGR-1 | KYSE-140 | 769-P
0.377 µM: NCI-H1792
0.214 µM: MG-63
0.347 µM: NCI-H2009

C=C(c1ccc(C(=O)O)cc1)c1cc2c(cc1C)C(C)(C)CCC2(C)C [BEXAROTENE]
0.789 µM: MG-63
7.11 µM: TYK-nu
7.97 µM: MC-IXC
not listed: A549 | OC-314 | HuO9
> 8 µM: all other assays above
